Counter-ions that a name gives are not always drawn.
Legend:
Assay type in all cases: in vivo
[1] = PK following intravenous administration in rats; settings: for AUC: IV 1 mg/kg, jugular vein
Procedure: The bioavailability of 9-[(2,2, dimethyl-propyl amino)-methyl]-minocycline following intravenous administration in rats was studied. The freebase (“FB”) and the HCl salt (“HCl salt”) of 9-[(2,2, dimethyl-propyl amino)-methyl]-minocycline were used. All formulations were prepared fresh on the day of the experiment. Samples for pharmacokinetic analysis were collected from a cannula within the carotid artery of the rats. Intravenous doses of (1 mg/kg) were administered to rats through cannulas in either the jugular or portal veins.

[2] = PK and oral bioavailability following dosing via oral gavage in rats
Procedure: Solutions of 9-[(2,2, dimethyl-propyl amino)-methyl]-minocycline freebase (5 mg/kg [2 ml/kg]) were administered by oral gavage. The solutions were composed of 9-[(2,2, dimethyl-propyl amino)-methyl]-minocycline alone or in combination with bioavailability enhancing agents to assess their effect on oral bioavailability.
The % F was calculated using the IV data presented in Example 1 and the equation: % F=Oral AUC/IV AUC.

[3] = PK and bioavailability following intra-duodenal administration in rats
Procedure: In order to measure the effect of delivering 9-[(2,2, dimethyl-propyl amino)-methyl]-minocycline directly into the duodenum, rats bearing duodenal cannulas were administered 9-[(2,2, dimethyl-propyl amino)-methyl]-minocycline freebase alone or in combination with bioavailability enhancing agents to assess their effects on bioavailability.

[4] = Effects of permeability enhancers on bioavailability, oral gavage in rats
Procedure: As a control, a solution of 9-[(2,2, dimethyl-propyl amino)-methyl]-minocycline freebase (“freebase”) was prepared using sterile water and the final pH was adjusted to ˜5. To prepare the sodium caprate (sodium decanoate, a compound that increases paracellular permeability) containing solution, the freebase was first dissolved in sterile water and sodium caprate was then added to a final concentration of 13 mM. The resulting solution was administered to rats via oral gavage without pH adjustment. The solution of freebase containing 1.5% chitosan was then prepared by first dissolving the freebase in sterile water and then adjusting the pH of this solution (pH ˜8.1) to a final pH ˜5 using 1N HCl. Chitosan was then added to a final concentration of 1.5% and the resulting solution was administered to rats via oral gavage as a slurry.

[5] = rats with duodenal cannulas, intra-duodenal administration

Row | Structure (SMILES) | AUC ([1]; fasted, 1 mg/kg) | differences in pharmacokinetic parameters, freebase vs HCl salt ([1]; IV, fasted animals) | effects of first pass hepatic elimination on pharmacokinetics ([1]; after IV dosing) | % F (oral bioavailability) ([2]; oral gavage 5 mg/kg, calculated using the IV data of Example 1) [%] | AUC ([2]; oral gavage, 5 mg/kg [2 ml/kg] solution) [ng·h/mL] | % F [3, 5] [%] | AUC [3, 5] [ng·h/mL] | change in AUC when administered directly to the duodenum ([3]; rats, intra-duodenal) | % F [4] [%] | AUC [4] [ng·h/mL] | AUC ([1]; fed) [µg·h/mL] | total exposure (AUC) and clearance, portal vein vs jugular vein ([1]; IV, fasted animals) | tendency for higher clearance in a fed group ([1]; IV, fed vs fasted) [%]
1 | CN(C)c1cc(CNCC(C)(C)C)c(O)c2c1C[C@H]1C[C@H]3[C@H](N(C)C)C(O)=C(C(N)=O)C(=O)[C@@]3(O)C(O)=C1C2=O [FB, 9-[(2,2, dimethyl-propylamino)-methyl]-minocycline] | 0.57 (0.50; 0.63) ug*hr/mL | no significant differences | no significant effects | 11.7 ± 4.1 | 330 ± 120 | 15.4 ± 5.2 | 440 ± 150 | significant increase in AUC | 11.7 ± 4.1 | 330 ± 120 | – | – | –
2 | CN(C)c1cc(CNCC(C)(C)C)c(O)c2c1C[C@H]1C[C@H]3[C@H](N(C)C)C(O)=C(C(N)=O)C(=O)[C@@]3(O)C(O)=C1C2=O [HCl salt, 9-[(2,2, dimethyl-propylamino)-methyl]-minocycline] | 0.59 (0.45; 0.73) ug*hr/mL | no significant differences | – | – | – | – | – | – | – | – | 0.46 ± 0.04 | equal | ~22

From patent US9078811B2, “Methods of increasing oral bioavailability of tetracyclines” (Paratek Pharmaceuticals, Inc., priority 2006, dated 2015)
